{"source": "patent US8530493B2", "about": "“Indolopyridines as Eg5 kinesin modulators” (4SC AG, priority 2006, dated 2013)", "data": [{"test_system": "RKO p21 uninduced (proliferating) colon adenocarcinoma cells", "assay": "Alamar Blue cell viability assay, RKO p21 uninduced (proliferating)", "assay_type": "cell-based", "details": "Homo sapiens, Table B3, anti-proliferative/cytotoxic activity, 72 hours, read-out: −log EC50 RKO p21 uninduced (proliferating) (converted)", "description": "The anti-proliferative/cytotoxic activity of the compounds described herein can be tested on subclones of RKO human colon adenocarcinoma cells (Schmidt et al., Oncogene 19, 2423-2429; 2000) using the Alamar Blue cell viability assay (described in O'Brien et al. Eur J Biochem 267, 5421-5426, 2000). The compounds are dissolved as 10 mM solutions in DMSO and subsequently diluted in semi-logarithmic steps. DMSO dilutions are further diluted 1:100 into Dulbecco's modified Eagle's medium (DMEM) containing 10% fetal calf serum to a final concentration twice as much as the final concentration in the test. RKO subclones are seeded into 96 well flat bottom plates at a density of 4000 cells per well in a volume of 50 μl per well. 24 hours after seeding the 50 μl each of the compound dilutions in DMEM medium are added into each well of the 96 well plate. Each compound dilution is tested as triplicates. Wells containing untreated control cells are filled with 50 μl DMEM medium containing 1% DMSO. The cells are then incubated with the substances for 72 hours at 37° C. in a humidified atmosphere containing 5% carbon dioxide. To determine the viability of the cells, 10 μl of an Alamar Blue solution (Biosource) are added and the fluorescence is measured at an extinction of 544 nm and an emission of 590 nm. For the calculation of the cell viability the emission value from untreated cells is set as 100% viability and the emission rates of treated cells are set in relation to the values of untreated cells. Viabilities are expressed as % values. The Graphpad Prism program is used for the calculation of EC50 values for anti-proliferative/cytotoxic activity out of the obtained dose-response curves.\nTo determine the cell cycle specific mode of action, subclones of RKO colon adenocarcinoma cells (RKOp21 or RKOp27 as described by Schmidt et al. in Oncogene 19, 2423-2429; 2000) are seeded into 96 well flat bottom plates at a density of 16000 cells per well in a volume of 50 μl per well in DMEM growth medium with 10% FCS containing 10 μM Ponasterone A. 24 hours after seeding the 50 μl each of the compound dilutions in DMEM medium are added into each well of the 96-well plate. Each compound dilution is tested as triplicates. Wells containing untreated control cells are filled with 50 μl DMEM medium containing 1% DMSO. The cells are then incubated with the substances for 72 hours at 37° C. in a humidified atmosphere containing 5% carbon dioxide. To determine the viability of the cells, 10 μl of an Alamar Blue solution (Biosource) are added and the fluorescence is measured at an extinction of 544 nm and an emission of 590 nm. For the calculation of the cell viability the emission value from untreated cells is set as 100% viability and the emission rates of treated cells are set in relation to the values of untreated cells. Viabilities are expressed as % values. The Graphpad Prism program (GraphPad Software, Inc) is used for the calculation of EC50 values out of the obtained dose-response curves. Viability is compared of proliferating cells grown in the absence of the inducer Ponasterone A, versus viability of cells arrested by the expression of ectopic p27Kip1 induced by Ponasterone A.\nRepresentative values for anti-proliferation/cytotoxicity [measured as −log EC50 (mol/l)] determined in the aforementioned assays follow from the following tables B1, B2 and B3, in which the numbers of the compounds correspond to the numbers of the examples.", "units": {"EC50": "nM"}, "values": [{"smiles": "COCCNCCN1C(=O)N2[C@H](c3cccc(O)c3)c3[nH]c4ccc(Br)cc4c3C[C@@]2(C)C1=O", "note": "(racemic) [Example 377, (3aSR,10RS)-6-Bromo-10-(3-hydroxy-phenyl)-2-[2-(2-methoxy-ethylamino)-ethyl]-3a-methyl-3a,4,9,10-tetrahydro-2,9,10a-triaza-cyclopenta[b]fluorene-1,3-dione]", "EC50": "≤ 39.8"}, {"smiles": "C[C@@]12Cc3c([nH]c4cc(F)c(Cl)cc34)[C@@H](c3cccc(O)c3)N1C(=O)N(CCCNCC1CC1)C2=O", "note": "(racemic) [Example 460, (3aSR,10RS)-6-Chloro-2-[3-(cyclopropylmethyl-amino)-propyl]-7-fluoro-10-(3-hydroxy-phenyl)-3a-methyl-3a,4,9,10-tetrahydro-2,9,10a-triaza-cyclopenta[b]fluorene-1,3-dione]", "EC50": "39.8 to 251"}, {"smiles": "C[C@@]12Cc3c([nH]c4ccc(Br)cc34)[C@@H](c3cccc(O)c3)N1C(=O)N(CCNCC1CC1)C2=O", "note": "(racemic) [Example 376, (3aSR,10RS)-6-Bromo-2-[2-(cyclopropylmethyl-amino)-ethyl]-10-(3-hydroxy-phenyl)-3a-methyl-3a,4,9,10-tetrahydro-2,9,10a-triaza-cyclopenta[b]fluorene-1,3-dione]", "EC50": "≤ 39.8"}, {"smiles": "CC(C)N(C)CCCN1C(=O)N2[C@H](c3cccc(O)c3)c3[nH]c4ccc(Br)cc4c3C[C@@]2(C)C1=O", "note": "(racemic) [Example 218, (3aSR,10RS)-6-Bromo-10-(3-hydroxy-phenyl)-2-[3-(isopropyl-methyl-amino)-propyl]-3a-methyl-3a,4,9,10-tetrahydro-2,9,10a-triaza-cyclopenta[b]fluorene-1,3-dione]", "EC50": "≤ 39.8"}, {"smiles": "COc1ccc2[nH]c3c(c2c1F)C[C@@]1(C)C(=O)N(CCNC(C)C)C(=O)N1[C@@H]3c1cccc(O)c1", "note": "(racemic) [Example 408, (3aSR,10RS)-5-Fluoro-10-(3-hydroxy-phenyl)-2-{2-isopropylamino-ethyl)-6-methoxy-3a-methyl-3a,4,9,10-tetrahydro-2,9,10a-triaza-cyclopenta[b]fluorene-1,3-dione]", "EC50": "39.8 to 251"}, {"smiles": "C[C@@]12Cc3c([nH]c4ccc(OC(F)F)cc34)[C@@H](c3cccc(O)c3)N1C(=O)N(CCN1CCCC1)C2=O", "note": "(racemic) [Example 279, (3aSR,10RS)-6-(1,1-Difluoro-methoxy)-10-(3-hydroxy-phenyl)-3a-methyl-2-(2-pyrrolidin-1-yl-ethyl)-3a,4,9,10-tetrahydro-2,9,10a-triaza-cyclopenta[b]fluorene-1,3-dione]", "EC50": "≤ 39.8"}, {"smiles": "CCOc1ccc2[nH]c3c(c2c1)C[C@@]1(C)C(=O)N(CCCN2CCOCC2)C(=O)N1[C@@H]3c1cccc(O)c1", "note": "(racemic) [Example 207, (3aSR,10RS)-6-Ethoxy-10-(3-hydroxy-phenyl)-3a-methyl-2-(3-morpholin-4-yl-propyl)-3a,4,9,10-tetrahydro-2,9,10a-triaza-cyclopenta[b]fluorene-1,3-dione]", "EC50": "39.8 to 251"}, {"smiles": "CCOc1ccc2[nH]c3c(c2c1)C[C@@]1(C)C(=O)N(CCCN2CCN(C)CC2)C(=O)N1[C@@H]3c1cccc(O)c1", "note": "(racemic) [Example 229, (3aSR,10RS)-6-Ethoxy-10-(3-hydroxy-phenyl)-3a-methyl-2-[3-(4-methyl-piperazin-1-yl)-propyl]-3a,4,9,10-tetrahydro-2,9,10a-triaza-cyclopenta[b]fluorene-1,3-dione]", "EC50": "39.8 to 251"}, {"smiles": "COc1cc2c3c([nH]c2cc1F)[C@@H](c1cccc(O)c1)N1C(=O)N(CCCNC(C)C)C(=O)[C@]1(C)C3", "note": "(racemic) [Example 331, (3aSR,10RS)-7-Fluoro-10-(3-hydroxy-phenyl)-2-{3-isopropylamino-propyl)-6-methoxy-3a-methyl-3a,4,9,10-tetrahydro-2,9,10a-triaza-cyclopenta[b]fluorene-1,3-dione]", "EC50": "39.8 to 251"}, {"smiles": "C[C@@]12Cc3c([nH]c4ccc(OC(F)F)cc34)[C@@H](c3cccc(O)c3)N1C(=O)N(CCN1CC=CCC1)C2=O", "note": "(racemic) [Example 281, (3aSR,10RS)-6-(1,1-Difluoro-methoxy)-2-[2-(3,6-dihydro-2H-pyridin-1-yl)-ethyl]-10-(3-hydroxy-phenyl)-3a-methyl-3a,4,9,10-tetrahydro-2,9,10a-triaza-cyclopenta[b]fluorene-1,3-dione]", "EC50": "39.8 to 251"}, {"smiles": "COc1cc2c3c([nH]c2cc1F)[C@@H](c1cccc(O)c1)N1C(=O)N(CCCNC2CCC2)C(=O)[C@]1(C)C3", "note": "(racemic) [Example 333, (3aSR,10RS)-2-(3-Cyclobutylamino-propyl)-7-fluoro-10-(3-hydroxy-phenyl)-6-methoxy-3a-methyl-3a,4,9,10-tetrahydro-2,9,10a-triaza-cyclopenta[b]fluorene-1,3-dione]", "EC50": "39.8 to 251"}, {"smiles": "COc1cc2c3c([nH]c2cc1F)[C@@H](c1cccc(O)c1)N1C(=O)N(CCNCCO)C(=O)[C@]1(C)C3", "note": "[Example 245, (3aS,10R)-7-Fluoro-2-[2-(2-hydroxy-ethylamino)-ethyl]-10-(3-hydroxy-phenyl)-6-methoxy-3a-methyl-3a,4,9,10-tetrahydro-2,9,10a-triaza-cyclopenta[b]fluorene-1,3-dione]", "EC50": "39.8 to 251"}, {"smiles": "COc1ccc2[nH]c3c(c2c1)C[C@@]1(C)C(=O)N(CCCN(C)CCO)C(=O)N1[C@@H]3c1cccc(O)c1", "note": "[Example 542, (3aS,10R)-2-{3-[(2-Hydroxy-ethyl)-methyl-amino]-propyl}-10-(3-hydroxy-phenyl)-6-methoxy-3a-methyl-3a,4,9,10-tetrahydro-2,9,10a-triaza-cyclopenta[b]fluorene-1,3-dione]", "EC50": "≤ 39.8"}, {"smiles": "COc1ccc2[nH]c3c(c2c1)C[C@@]1(C)C(=O)N(CCCNC(C)(C)C)C(=O)N1[C@@H]3c1cccc(O)c1", "note": "[Example 538, (3aS,10R)-2-(3-tert-Butylamino-propyl)-10-(3-hydroxy-phenyl)-6-methoxy-3a-methyl-3a,4,9,10-tetrahydro-2,9,10a-triaza-cyclopenta[b]fluorene-1,3-dione]", "EC50": "≤ 39.8"}, {"smiles": "C[C@@]12Cc3c([nH]c4ccc(OC(F)F)cc34)[C@@H](c3cccc(O)c3)N1C(=O)N(CCNCCO)C2=O", "note": "(racemic) [Example 285, (3aSR,10RS)-6-(1,1-Difluoro-methoxy)-2-[2-(2-hydroxy-ethylamino)-ethyl]-10-(3-hydroxy-phenyl)-3a-methyl-3a,4,9,10-tetrahydro-2,9,10a-triaza-cyclopenta[b]fluorene-1,3-dione]", "EC50": "39.8 to 251"}, {"smiles": "CCOc1ccc2[nH]c3c(c2c1)C[C@@]1(C)C(=O)N(CCCNC)C(=O)N1[C@@H]3c1cccc(O)c1", "note": "(racemic) [Example 186, (3aSR,10RS)-6-Ethoxy-10-(3-hydroxy-phenyl)-3a-methyl-2-(3-methylamino-propyl)-3a,4,9,10-tetrahydro-2,9,10a-triaza-cyclopenta[b]fluorene-1,3-dione]", "EC50": "39.8 to 251"}, {"smiles": "CCN(CCO)CCN1C(=O)N2[C@H](c3cccc(O)c3)c3[nH]c4ccc(Br)cc4c3C[C@@]2(C)C1=O", "note": "(racemic) [Example 379, (3aSR,10RS)-6-Bromo-2-{2-[ethyl-(2-hydroxy-ethyl)-amino]-ethyl}-10-(3-hydroxy-phenyl)-3a-methyl-3a,4,9,10-tetrahydro-2,9,10a-triaza-cyclopenta[b]fluorene-1,3-dione]", "EC50": "≤ 39.8"}, {"smiles": "C[C@@]12Cc3c([nH]c4ccc(Br)cc34)[C@@H](c3cccc(O)c3)N1C(=O)N(CCN1CCCCC1)C2=O", "note": "(racemic) [Example 390, (3aSR,10RS)-6-Bromo-10-(3-hydroxy-phenyl)-3a-methyl-2-(2-piperidin-1-yl-ethyl)-3a,4,9,10-tetrahydro-2,9,10a-triaza-cyclopenta[b]fluorene-1,3-dione]", "EC50": "≤ 39.8"}, {"smiles": "COc1cc2c3c([nH]c2cc1F)[C@@H](c1cccc(O)c1)N1C(=O)N(CCCNCC(C)C)C(=O)[C@]1(C)C3", "note": "(racemic) [Example 332, (3aSR,10RS)-7-Fluoro-10-(3-hydroxy-phenyl)-2-(3-isobutylamino-propyl)-6-methoxy-3a-methyl-3a,4,9,10-tetrahydro-2,9,10a-triaza-cyclopenta[b]fluorene-1,3-dione]", "EC50": "39.8 to 251"}]}]}
